Results reported in article PMC12238723, “Phase I Clinical Trial of CVL218, a Novel PARP1/2 Inhibitor, in Patients with Advanced Solid Tumors” (MedComm, 2025).

Test system: patients with advanced solid tumors
Experiment: Treatment-related adverse events (CTCAE v5.0), phase I dose escalation
Assay type: in vivo
From the text: This study was a single‐arm, dose‐escalation phase I trial conducted in Sun Yat‐sen University Cancer Center in China. This study assessed CVL218 in patients with histologically or cytologically confirmed advanced solid tumors who were in PD after standard therapeutic regimens or lacked standard treatment options. Inclusion criteria included: age 18–75 years; with at least one measurable and evaluable target lesion per Response Evaluation Criteria in Solid Tumors 1.1 (RECIST 1.1); ECOG performance status of 0 or 1; adequate hematological, renal, cardiac, and hepatic functions and a life expectancy ≥12 weeks. Key exclusion criteria included prior usage of PARP inhibitors; allergic to the research drug or its components; with active, unstable systemic diseases or active, uncontrolled infection; a history of other malignancies within 5 years, and pregnant or lactating women.
CVL218 was administered orally, and this dose‐escalation trial included nine dose levels: 100 mg QD (50 mg BID), 200 mg QD (100 mg BID), 400 mg QD (200 mg BID), 700 mg QD (350 mg BID), 1000 mg QD (500 mg BID), 1200 mg QD (600 mg BID), 1400 mg QD (700 mg BID), 1700 mg QD (850 mg BID), and 2000 mg QD (1000 mg BID). Patients enrolled in the study received a single oral dose on the first day, followed by continuous multiple dosing (twice a day taking 12 h apart) after 72 h, with the treatment cycle lasting 4 weeks. The period during which patients received a single dose is designated as cycle 0 (C0), lasting 72 h. After this period, patients begin multiple dosing, referred to as cycle 1 (C1). An initial accelerated titration design was employed for the three lowest dose groups, and the “3+3” design was applied starting with the 300 mg BID cohort.
The primary objectives were to assess safety and tolerability as well as to determine the MTD, DLT, and dose recommended for further study. DLT was defined as any of the following events occurring during cycle 0 (including 72 h wash‐out period after a single dose) and cycle 1 per Common Terminology Criteria for Adverse Events (CTCAE) version 5.0: grade 4 anemia; grade 4 neutropenia; grade 3 neutropenia with fever ≥38.5°C; grade 4 thrombocytopenia; grade 3 thrombocytopenia associated with bleeding; grade ≥2 neurotoxicity; any other grade ≥3 nonhematological toxicities (excluding alopecia). The secondary objectives were to assess the PK and preliminary efficacy of CVL218.
Subjects who received at least one dose of CVL218 with postadministration safety records were included in safety analysis set. Subjects who received at least one dose of CVL218 with at least one evaluable PK parameter were included in PK analysis set. Per‐protocol set were used for efficacy analysis. Descriptive statistics of safety were presented per CTCAE v5.0. The PK parameters T max and T 1/2 were shown as the median (min, max) and mean ± SD, respectively. A two‐sided p < 0.05 was considered to indicate statistical significance. Statistical analysis was performed by using GraphPad prism 8.0.2 and R‐4.3.3.

CNCc1ccc(-c2cc3cc(F)cc(C(N)=O)c3o2)cc1.Cl [CVL218]
Musculoskeletal discomfort (850 mg BID, ≥G3): 0 n (%) | Musculoskeletal disorders (850 mg BID, ≥G3): 0 n (%) | Nausea (850 mg BID, ≥G3): 0 n (%) | Nervous system disorders (850 mg BID, ≥G3): 0 n (%) | Neutrophil count decreased (850 mg BID, ≥G3): 0 n (%) | Neutrophil count increased (850 mg BID, ≥G3): 0 n (%) | Palpitations (850 mg BID, ≥G3): 0 n (%) | Protein urine present (850 mg BID, ≥G3): 0 n (%) | Proteinuria (850 mg BID, ≥G3): 0 n (%) | Rash (850 mg BID, ≥G3): 0 n (%) | Renal & urinary disorders (850 mg BID, ≥G3): 0 n (%) | Renal failure (850 mg BID, ≥G3): 0 n (%) | Reproductive disorders (850 mg BID, ≥G3): 0 n (%) | Skin disorders (850 mg BID, ≥G3): 0 n (%) | Urinary occult blood positive (850 mg BID, ≥G3): 0 n (%) | Vomiting (850 mg BID, ≥G3): 0 n (%) | WBC count decreased (850 mg BID, ≥G3): 0 n (%) | WBC count increased (850 mg BID, ≥G3): 0 n (%) | ALT increased (All (N = 26), ALL): 4 (15.4) n (%) | AST increased (All (N = 26), ALL): 2 (7.7) n (%) | Abdominal distension (All (N = 26), ALL): 1 (3.8) n (%) | Abdominal pain (All (N = 26), ALL): 1 (3.8) n (%) | Abdominal pain upper (All (N = 26), ALL): 1 (3.8) n (%) | Amylase increased (All (N = 26), ALL): 2 (7.7) n (%) | Anemia (All (N = 26), ALL): 2 (7.7) n (%) | Any AE related to study drug (All (N = 26), ALL): 26 (100) n (%) | Asthenia (All (N = 26), ALL): 2 (7.7) n (%) | Blood creatinine increased (All (N = 26), ALL): 5 (19.2) n (%) | Blood system disorders (All (N = 26), ALL): 2 (7.7) n (%) | Blood triglycerides increased (All (N = 26), ALL): 1 (3.8) n (%) | Blood urea increased (All (N = 26), ALL): 1 (3.8) n (%) | Cardiac disorders (All (N = 26), ALL): 1 (3.8) n (%) | Chest discomfort (All (N = 26), ALL): 2 (7.7) n (%) | Constipation (All (N = 26), ALL): 2 (7.7) n (%) | Decreased appetite (All (N = 26), ALL): 5 (19.2) n (%) | Diarrhea (All (N = 26), ALL): 10 (38.5) n (%) | Dizziness (All (N = 26), ALL): 3 (11.5) n (%) | Erectile dysfunction (All (N = 26), ALL): 1 (3.8) n (%) | Gastrointestinal disorders (All (N = 26), ALL): 24 (92.3) n (%) | General disorders (All (N = 26), ALL): 4 (15.4) n (%) | Gingival bleeding (All (N = 26), ALL): 1 (3.8) n (%) | Granulocyte count increased (All (N = 26), ALL): 1 (3.8) n (%) | Headache (All (N = 26), ALL): 2 (7.7) n (%) | Hypoalbuminemia (All (N = 26), ALL): 2 (7.7) n (%) | Infusion site pain (All (N = 26), ALL): 1 (3.8) n (%) | Laboratory test disorders (All (N = 26), ALL): 15 (57.7) n (%) | Limb discomfort (All (N = 26), ALL): 1 (3.8) n (%) | Lipase increased (All (N = 26), ALL): 6 (23.1) n (%) | Metabolic disorders (All (N = 26), ALL): 6 (23.1) n (%) | Musculoskeletal discomfort (All (N = 26), ALL): 1 (3.8) n (%) | Musculoskeletal disorders (All (N = 26), ALL): 1 (3.8) n (%) | Nausea (All (N = 26), ALL): 20 (76.9) n (%) | Nervous system disorders (All (N = 26), ALL): 4 (15.4) n (%) | Neutrophil count decreased (All (N = 26), ALL): 1 (3.8) n (%) | Neutrophil count increased (All (N = 26), ALL): 2 (7.7) n (%) | Palpitations (All (N = 26), ALL): 1 (3.8) n (%) | Protein urine present (All (N = 26), ALL): 1 (3.8) n (%) | Proteinuria (All (N = 26), ALL): 6 (23.1) n (%) | Rash (All (N = 26), ALL): 3 (11.5) n (%) | Renal & urinary disorders (All (N = 26), ALL): 7 (26.9) n (%) | Renal failure (All (N = 26), ALL): 3 (11.5) n (%) | Reproductive disorders (All (N = 26), ALL): 1 (3.8) n (%) | Skin disorders (All (N = 26), ALL): 3 (11.5) n (%) | Urinary occult blood positive (All (N = 26), ALL): 1 (3.8) n (%) | Vomiting (All (N = 26), ALL): 20 (76.9) n (%) | WBC count decreased (All (N = 26), ALL): 1 (3.8) n (%) | WBC count increased (All (N = 26), ALL): 2 (7.7) n (%) | ALT increased (All (N = 26), ≥G3): 0 n (%) | AST increased (All (N = 26), ≥G3): 0 n (%) | Abdominal distension (All (N = 26), ≥G3): 0 n (%) | Abdominal pain (All (N = 26), ≥G3): 1 (3.8) n (%) | Abdominal pain upper (All (N = 26), ≥G3): 0 n (%) | Amylase increased (All (N = 26), ≥G3): 0 n (%) | Anemia (All (N = 26), ≥G3): 0 n (%) | Any AE related to study drug (All (N = 26), ≥G3): 4 (15.4) n (%) | Asthenia (All (N = 26), ≥G3): 0 n (%) | Blood creatinine increased (All (N = 26), ≥G3): 3 (11.5) n (%) | Blood system disorders (All (N = 26), ≥G3): 0 n (%) | Blood triglycerides increased (All (N = 26), ≥G3): 0 n (%) | Blood urea increased (All (N = 26), ≥G3): 1 (3.8) n (%) | Cardiac disorders (All (N = 26), ≥G3): 0 n (%) | Chest discomfort (All (N = 26), ≥G3): 0 n (%) | Constipation (All (N = 26), ≥G3): 0 n (%) | Decreased appetite (All (N = 26), ≥G3): 0 n (%) | Diarrhea (All (N = 26), ≥G3): 0 n (%) | Dizziness (All (N = 26), ≥G3): 0 n (%) | Erectile dysfunction (All (N = 26), ≥G3): 0 n (%) | Gastrointestinal disorders (All (N = 26), ≥G3): 1 (3.8) n (%) | General disorders (All (N = 26), ≥G3): 0 n (%) | Gingival bleeding (All (N = 26), ≥G3): 0 n (%) | Granulocyte count increased (All (N = 26), ≥G3): 0 n (%) | Headache (All (N = 26), ≥G3): 0 n (%) | Hypoalbuminemia (All (N = 26), ≥G3): 0 n (%) | Infusion site pain (All (N = 26), ≥G3): 0 n (%) | Laboratory test disorders (All (N = 26), ≥G3): 4 (15.4) n (%) | Limb discomfort (All (N = 26), ≥G3): 0 n (%) | Lipase increased (All (N = 26), ≥G3): 1 (3.8) n (%) | Metabolic disorders (All (N = 26), ≥G3): 0 n (%) | Musculoskeletal discomfort (All (N = 26), ≥G3): 0 n (%) | Musculoskeletal disorders (All (N = 26), ≥G3): 0 n (%) | Nausea (All (N = 26), ≥G3): 0 n (%) | Nervous system disorders (All (N = 26), ≥G3): 0 n (%) | Neutrophil count decreased (All (N = 26), ≥G3): 0 n (%) | Neutrophil count increased (All (N = 26), ≥G3): 0 n (%) | Palpitations (All (N = 26), ≥G3): 0 n (%) | Protein urine present (All (N = 26), ≥G3): 0 n (%) | Proteinuria (All (N = 26), ≥G3): 0 n (%) | Rash (All (N = 26), ≥G3): 0 n (%) | Renal & urinary disorders (All (N = 26), ≥G3): 0 n (%) | Renal failure (All (N = 26), ≥G3): 0 n (%) | Reproductive disorders (All (N = 26), ≥G3): 0 n (%) | Skin disorders (All (N = 26), ≥G3): 0 n (%) | Urinary occult blood positive (All (N = 26), ≥G3): 0 n (%) | Vomiting (All (N = 26), ≥G3): 0 n (%) | WBC count decreased (All (N = 26), ≥G3): 0 n (%) | WBC count increased (All (N = 26), ≥G3): 0 n (%) | TRAE of any grade: diarrhea (all 26 patients): 38.5% | TRAE of any grade: lipase increased (all 26 patients): 23.1% | TRAE of any grade: nausea (all 26 patients): 76.9% | TRAE of any grade: proteinuria (all 26 patients): 23.1% | TRAE of any grade: vomiting (all 26 patients): 76.9% | patients with ≥grade 3 TRAEs (all 26 patients): 15.4% | ≥grade 3 TRAE: abdominal pain (all 26 patients): 3.8% | anemia of grade 3 or more severe (in vivo): None of the anemias were of grade 3 or more severe | grade ≥3 gastrointestinal AEs (in vivo): 3.8% | patients with gastrointestinal reactions (in vivo): 92.3% | ≥grade 3 TRAE: blood creatinine increased (in vivo): 11.5% | ≥grade 3 TRAE: blood urea increased (in vivo): 3.8% | ≥grade 3 TRAE: lipase increased (in vivo): 3.8%
